US20220183290A1, “CHEMICALS WHICH ALTER THE PRODUCTION OF METABOLITES IN CULTIVATED PLANTS” (priority 2017, published 2022)

Experiments:
[1] = tested on: Cannabis sp. hemp varietal clones (Happy Camper); assay: Example 1: indoor cultivation experiment, elicitor treatments, secondary metabolite content of flowers; format: in vivo; conditions: for terpene production (in words): applied alone or in conjunction with other elicitor treatments; for Total terpene production, change: either MeJA and/or SA (pooled) vs control or si only
Text: Applicant performed an indoor cultivation experiment with 30 identical Cannabis sp. hemp varietal clones (Happy Camper, CBDRx LLC, Colorado). Each of the thirty plants was randomly assigned to one of six treatment groups to test the efficacy and effectiveness of each elicitor compound in isolation or in combination. Plants were maintained in an isolated indoor growing environment under eight, 600-watt double-ended electronic high pressure sodium lamps (Gavita International B.V) under a photoperiod of 12 hours of light per 24-hour day and potted in 1-gallon black plastic pots with a 55% coco coir/45% perlite media (Miller Soils LLC, Longmont, Colo., USA), then transplanted into 10-gallon fabric pots (Smart Pot, High Caliper Growing, USA) filled with a mixture of 75% coco coir and 25% cork (DNA-Mills Ltd, London, England), irrigated as needed with tap water and fertilized consistently to maintain good health with a 4-20-39 base nutrient supplemented with 15-0-0 Calcium Nitrate and commercially available magnesium sulfate (Hydro Gardens International, Colorado Springs, Colo.) at a rate of 300-500 ppm (TDS) as needed. A microbial inoculant (Tribus Original, Impello Biosciences, Ft. Collins, Colo.) was applied at a rate of 1 mL/gallon of nutrient solution every watering to improve plant health. Drip emitters and an automated watering system supplied water and nutrients equally to each plant. Temperatures in the growing environment were maintained at 75° F.±15° F. with a relative humidity range of 30-60%. Every 14 days of growth, all plants were supplemented with a fish protein hydrolysate at a rate of 5 ml/gallon of the previously mentioned nutrient solution to improve nutrition (Innate Bloom 4-2-1, Impello Biosciences, Colorado).
Treatment groups included (1) applications of MeJA as a foliar spray at a concentration of 7.5 mM, (2) SA as a foliar spray at a concentration of 0.5 mM, (3) SiA as a root drench at a concentration of 3 mM, (4) MeJA as a foliar spray at a concentration of 7.5 mM and a root drench of SiA at a concentration of 3 mM, and (5) MeJA as a foliar spray at a concentration of 7.5 mM and a root drench of SiA at a concentration of 3 mM and foliar applications of SA at a concentration of 0.5 mM. The control group was not treated with any applications aside from normal fertilization. Foliar applications of MeJA were performed in the morning hours, within 30 minutes of daybreak, with applications covering plant leaves until dripping. Applications of SA for all SA treatment groups were performed in the morning hours, within 30 minutes of daybreak, with applications covering plant leaves until dripping. Applications of SiA were performed by hand additions of SiA mixtures at the desired concentration to the plant roots of treatment plants; control plants were treated with plain water in the same volume at the same time without the addition of SiA.
7.5 mM solutions of MeJA (mixture of isomers) were prepared in 1-liter volumes using 93% purity MeJA stock solution (TCI America, CAS #[…]) added to reverse osmosis water dropwise with a pipettor while stirring. The pH of the final solution was not adjusted. 0.5 mM solutions of SA were prepared from a 0.5M stock solution, which was prepared using Salicylic Acid powder (ThermoFisher Scientific, CAS #69-72-7), dissolved in 200-proof anhydrous EtOH, denatured (VWR Life Sciences) and stored in a sealed glass bottle. Plant-useable solution was prepared by diluting 1000 μL, of the stock SA solution in 999 mL of reverse osmosis water. Foliar applications of MeJA and SA were made with a 1-L volume low-pressure hand-pump sprayer (Mondi Products LTD, Canada). Silicic Acid solutions were prepared as needed using Silicic Acid stock powder (extra pure light DAB, Millipore Sigma, CAS #7699-41-4), dissolved in reverse osmosis water to the desired final concentration.
Plants were maintained under identical conditions in the same growing environment. […]

[2] = tested on: plants from clone (Charlotte x Tangie); assay: Example 4: flower yield / plant weight with varying concentrations of MeJA foliar spray; format: in vivo, Cannabis sativa
Text: Example 4: Assessment of Flower Yield in plants treated with varying concentrations of MeJA. […] In turn, we designed an experiment to evaluate the efficacy and effectiveness of applying MeJA as a foliar spray to plants in different concentrations.
Fourteen (14) identical plants from clone (Charlotte x Tangie, CBDRx) were cultivated in 1-gallon black plastic pots in a media mixture of 55% coco coir, 45% perlite (Miller Soils LLC, Colorado). Plants were rooted in 1-inch A-OK rockwool cubes (Grodan, B.V.) uniformly prior to transplant into the 1-gallon pots. At the time of transplant, plants were also transitioned from a photoperiod of 18 hours of light per day to a photoperiod of 12 hours of light per day to induce flowering. Each plant was maintained with a standard, commercially available 3-part (4-20-39, CaNO3, MgSO4) nutrient solution at a recommended rate of 350 ppm (Hydro Gardens International, CO), hand watered as needed with 1 L per plant. Plants were randomly assigned to one of four groups, including three treatment groups and one control group: 0 mM MeJA (control), 5 mM MeJA (low), 7.5 mM MeJA (med), and 10 mM MeJA (high). Plants were maintained under identical environmental conditions on a 4′×8′ black plastic table (Botanicare, USA) under 1200 w of light (Gavita Inc, Ne). […]

[3] = day 28, MeJA alone or in conjunction with other elicitors vs non-MeJA treatment, p≤0.05

## CC/C=C\CC1C(=O)CCC1CC(=O)OC (stereo not shown) [MeJA, Methyl Jasmonate]
[1]
  terpene production (in words): increased terpene production
[1]; [3]
  Total cannabinoids concentration, change: +61.96%
  total CBD concentration, change: +61.49%
  total THC concentration, change: +61.30%
[1]; day 28, p≤0.05
  Total terpene production, change: +35%
[1]; day 42, MeJA treatments vs no MeJA treatments, p≤0.0005
  Total CBDA, change: +54.99%
[1]; day 42, MeJA treatments vs no MeJA treatments, significance less than 0.0005
  Total THC-A, change: +56.82%
[1]; day 42, groups with MeJA alone or in combination vs groups without MeJA, p≤0.001
  Total cannabinoids (THC, THCA, CBD, CBDA), change: +54.67%
[1]; day 42, plants that received MeJA treatments (MeJA or MeJA+SiA or MeJA+SiA+SA) vs control group, p≤0.005
  total cannabinoid concentration, change: +41.49%
[1]; day 63, some sort of MeJA treatment (MeJA only, MeJA with SiA, or ALL) vs control group, p≤0.05
  total cannabinoid contents, change: +33.11%
[1]; day 63, some sort of MeJA treatment (MeJA only, MeJA with SiA, or ALL) vs no MeJA (control, SA only, SiA only), p≤0.000001
  total cannabinoid contents, change: +58.64%
[1]; day 63, vs control plants, p≤0.05 (ALL: p≤0.01)
  CBD content, change: +23.27%
[1]; throughout the flowering cycle, applied alone or in conjunction with other treatments
  cannabinoid production (in words): consistently increased cannabinoid production
[2]; exogenous foliar applications, 5-10 mM MeJA
  impact on plant performance: did not negatively impact plant performance
[2]; foliar spray 0, 5, 7.5, 10 mM MeJA every 14 days from day 7 of the reproductive cycle
  differences in weights between the treatment groups: No significant differences

## O=C(O)c1ccccc1O [SA, Salicylic acid]
[1]
  terpene production (in words): increased terpene production
[1]; applied independently without supplemental MeJA applications
  THCA production (in words): decreased THCA production
[1]; day 28, p≤0.05
  Total terpene production, change: +35%
[1]; day 63, SA treatment plants vs control plants, p≤0.05
  THCA, change: −45.67%
